Measurements: patent publication US20020107281A1, “Phototherapeutic and chemotherapeutic immunotherapy against tumors” (Photogen, Inc., priority 2000, published 2002)

Tests used:
[1] = tested on: recurrent malignant fibrous histocytoma; assay: Rose Bengal injection plus 60Co irradiation of a dog's tumor (Example 1); type: in vivo
Experimental: This anti-tumoral effect for the prototypical halogenated xanthene, Rose Bengal, is illustrated by the following example which is not intended to limit the present invention. An adult, female dog with a recurrent malignant fibrous histocytoma (an undifferentiated tumor that could be considered to be a poorly differentiated mesenchymal tumor), approximately 20 cc in volume, was treated by injection of approximately 7 cc of a 10% solution of Rose Bengal at several locations throughout the tumor volume. After a period of five days, an irradiation regimen consisting of 5 daily fractions (2 Gy each) of radiation from a ^60Co source was begun in order to effect phototherapy of the tumor. […] Such a response at 5 days is consistent with a chemotherapeutic modality of the injected Rose Bengal, while continued decrease in tumor mass at 19 days is consistent with a phototherapeutic modality related to tumor irradiation. […] This continued tumor regression is consistent with ongoing immune assault upon remaining tumor tissue.

[2] = tested on: renal adenocarcinoma (RAG) tumors; assay: Rose Bengal PDT of RAG tumors in nude mice, then tumor cell rechallenge (Example 4); type: in vivo, BALB/C athymic nude mice
Excerpt: (§1) The immunologic basis for phototherapy-induced immunity is further illustrated by the following example which is not intended to limit the present invention. As an additional control, immune incompetent mice were implanted with subcutaneous tumors, treated using phototherapy, then challenged with a second dose of tumor cells. Since they are immune incompetent, the inventors believed that such mice would respond to phototherapy but fail to develop immunity to tumor cells. […] The rate of tumor development from such implantation was approximately 50% (14/28 mice developed tumors within five weeks of injection). The tumors were treated using intra-lesionally-injected Rose Bengal and green light photoactivation (1% Rose Bengal administered intra-lesionally at approximately 1 cc/cm^3 tumor volume, then illuminated 24 hours post administration using 532 nm laser light at 100 J/cm^2, 200 mW/cm^2).

[3] = tested on: Murine hepatoma tumor cells (ATCC CRL-1830 Hepa 1-6); assay: Rose Bengal PDT of left-flank tumor in mice with bilateral hepatoma tumors (Example 5); type: in vivo, C57BL/6 mice
Experimental: The immunologic basis for phototherapy-induced immunity is further illustrated by the following example which is not intended to limit the present invention. Murine hepatoma tumor cells (10^6 cells, ATCC CRL-1830 Hepa 1-6) were injected subcutaneously into the left flank of immunocompetent mice (C57BL/6). Concurrent with this implantation, a smaller implantation was performed by injecting 5×10^5 tumor cells into the right flank of these mice. Tumors presented in both flanks within approximately 5-6 days of implantation. One group of mice were otherwise untreated and served as controls. […] A second group received illumination of the left-flank tumor with green light (532 nm laser light at 100 J/cm^2, 200 mW/cm^2). […] A third group received intra-lesional injection of the left-flank tumor with 50 μL of a 10% Rose Bengal solution (the right-flank tumor was not treated); the injected tumor was then illuminated 24 hours post drug administration using 532 nm laser light.

[4] = tested on: multiple superficial mast cell tumors; assay: Intra-lesional Rose Bengal chemotherapy in a dog with mast cell tumors (Example 7); type: in vivo
Experimental: This chemotherapeutic and immunologic anti-tumoral effect for the prototypical halogenated xanthene, Rose Bengal, is illustrated by the following example which is not intended to limit the present invention. An adult, female dog with multiple superficial mast cell tumors was treated by injection of several cc of a 10% solution of Rose Bengal into each of several tumors (approximately one third of the total tumors were treated in this manner). […] Such a response in the treated tumors is consistent with the expected chemotherapeutic modality of the injected Rose Bengal, while the noted decrease in non-treated tumors represents an ongoing immune assault upon remaining remote tumor tissues.

[5] = tested on: subcutaneous RAG tumors; assay: Intra-lesional Rose Bengal chemotherapy of RAG tumors, immune competent mice (Example 8); type: in vivo, C57BL/6 mice; conditions: 10% solution intra-lesionally
Excerpt: as §1
(§2) The chemotherapeutic and immunologic anti-tumoral effect for the prototypical halogenated xanthene, Rose Bengal, is further illustrated by the following example which is not intended to limit the present invention. Immune competent mice (C57BL/6 mice) and immune incompetent mice (BALB/C athymic nude mice) were implanted with subcutaneous RAG tumors, as previously described in Example 4. […]

[6] = tested on: subcutaneous RAG tumors; assay: Intra-lesional Rose Bengal chemotherapy of RAG tumors, immune incompetent mice (Example 8); type: in vivo, BALB/C athymic nude mice; conditions: 10% solution intra-lesionally
Excerpt: as §1, §2

O=C([O-])c1c(Cl)c(Cl)c(Cl)c(Cl)c1-c1c2cc(I)c(=O)c(I)c-2oc2c(I)c([O-])c(I)cc12.[Na+].[Na+] [Rose Bengal]
tumor mass at follow-up ([1]; 12 weeks post injection): significant further reduction in tumor mass | tumor size after irradiation ([1]; 19 days post injection, after 5 daily fractions (2 Gy each) 60Co): further measurable decrease in tumor size | side-effects in healthy tissue surrounding the tumor ([1]; all follow-up intervals): no significant side-effects in healthy tissue surrounding the tumor | tumor response before irradiation ([1]; approximately 7 cc of 10% solution injected into tumor, five days post injection, immediately prior to irradiation): measurable decrease in tumor density along with significant edema and apparent necrosis of large sections of the tumor | final histologic examination for viable tumor tissue ([1]; approximately 12 months post-treatment): no evidence of viable tumor tissue was observed | effect of phototherapy on treated lesions ([2]; 1% Rose Bengal intra-lesionally, approximately 1 cc/cm^3 tumor volume, 532 nm laser light 100 J/cm^2 24 hours post administration): selective acute necrosis of treated lesions | tumor development after challenge with second injection of RAG tumor cells ([2]; seven complete responders, 10^4 tumor cells to opposite flank, five weeks following challenge (3/7 mice)): approximately 50% | eradication of the treated left-flank tumor ([3]; 50 μL of 10% Rose Bengal solution intra-lesionally, 532 nm laser light 24 hours post administration): 5/5 | spontaneous rejection of the untreated right-flank tumor ([3]; left-flank tumor treated with 10% Rose Bengal and 532 nm light, right-flank tumor not treated): 5/5 | side-effects in healthy tissue surrounding the treated tumors ([4]; all follow-up intervals): no significant side-effects in healthy tissue surrounding the treated tumors | systemic side effects ([4]; all follow-up intervals): nor any evidence of significant systemic side effects | size of mast cell tumors, both treated and non-treated ([4]; several cc of 10% solution into approximately one third of the tumors, over subsequent three month period, no light): marked and progressive reduction in size | immediate effect of chemotherapeutic treatment on tumor ([5]; approximately 1 cc/cm^3 tumor volume, immune competent mice): immediate tumor necrosis | cure rate ([5]; immune competent mice (6/6 mice treated), upon follow-up): 100% | immediate effect of chemotherapeutic treatment on tumor ([6]; approximately 1 cc/cm^3 tumor volume, immune incompetent mice): immediate tumor necrosis | cure rate ([6]; immune incompetent mice (0/4 mice treated), upon follow-up): 0%
